{"source": "patent US20060099283A1", "about": "“Leaf juice of plectranthus amboinicus for treating cancer and/or tumor” (priority 2004, published 2006)", "key": {"Huh7": {"system": "Huh7", "assay": "Huh7 hepatocellular carcinoma cell count after treatment", "assay_type": "cell-based", "conditions": "Homo sapiens, Huh-7, 72 h; Huh7, day 3, 50 nM paciltaxel; read-out: inhibiting rate (cell growth)", "excerpt": "Cell lines: The following nine human tumor cell lines of different histologic origins were obtained from commercial cell culture collections unless indicated otherwise: HepG2 (haptocellular carcinoma, liver; provided by Dr. C H Huang, National Health Research Institute, Taipei, Taiwan), Hep3B (haptocellular carcinoma, liver; provided by Dr. C H Huang, National Health Research Institute, Taipei, Taiwan), U937 (myeloid leukemia), K562 (chronic myeloid leukemia, bone marrow), Calu-1 (epidermoid carcinoma, lung; provided by Dr. Y C Kuo, National Institute of Traditional Chinese Medicine, Taipei, Taiwan), TL (trophoblast-like cell line, placenta; provided by Dr. C K Ho, Veteran General Hospital, Taipei, Taiwan), Jurket (human lymphoblastoid T cell line), Bowes (human melanoma cell), and Huh7 (hepatocellular carcinoma/ectoderm).\nCultures were maintained at 37° C. in a humidified atmosphere containing 5% CO2. All cell reagents were obtained from Gibco-Invitrogen Co., Ltd (Grand Island, N.Y. U.S.A.) and HyClone (Logan, Utah, U.S.A.).\n(§1) Treatment: In all in vitro experiments, 3% of the leaf juice prepared according to Example 1 was added to the cells after subcultured directly.\nCell count: Total cell counts were made by adding 20 μL of the cell suspension to 20 μL of 0.4% trypan blue, and counted under a phase contrast microscope. […]"}, "HepG2": {"system": "HepG2", "assay": "HepG2 hepatocellular carcinoma cell count after treatment", "assay_type": "cell-based", "conditions": "Homo sapiens, 72 h; HepG2, day 3, 50 nM paciltaxel; read-out: inhibiting rate (cell growth)", "description": "HepG2 and Hep3B cells were cultured in minimum essential medium supplemented with 10% fetal calf serum, 2 mM L-glutamine, 50 IU/mL penicillin, and 50 μg/mL streptomycin.\nCultures were maintained at 37° C. in a humidified atmosphere containing 5% CO2.\nas §1\nCell count: Total cell counts were made by adding 20 μL of the cell suspension to 20 μL of 0.4% trypan blue, and counted under a phase contrast microscope.\nThe hepatocellular carcinoma cell lines used in the example are HepG2 and Huh7, and the manipulations of the cell culture and treatment are as described in Example 2. The cells were grouped into a control group (without treatment) and experiment groups treated with 5% of leaf juice, 50 nM paciltaxel, and combining 5% of leaf juice and 50 nM paciltaxel. Each group was repeated six times."}}, "data": [{"smiles": "CC(=O)O[C@H]1C(=O)[C@@]2(C)[C@H]([C@H](OC(=O)c3ccccc3)[C@]3(O)C[C@H](OC(=O)[C@H](O)[C@@H](NC(=O)c4ccccc4)c4ccccc4)C(C)=C1C3(C)C)[C@]1(OC(C)=O)CO[C@@H]1C[C@@H]2O", "note": "[paciltaxel]", "values": [{"measurement": "inhibition at 0.05 µM", "setting": "Huh7", "result": 66.1, "unit": "%"}, {"measurement": "inhibition at 0.05 µM", "setting": "HepG2", "result": 43.8, "unit": "%"}]}]}
